Data published in article PMC8333062, “Chemical tools for epichaperome-mediated interactome dysfunctions of the central nervous system” (Nature Communications, 2021).
Several values for one entry are separate records, joined by “and”; a condition that tells them apart may be missing. Identical values can stand only once.

Columns and labels:
[1] = system: epichaperomes in MDA-MB-468 cells; assay: Epichaperome modulation, Native PAGE; assay type: cell-based, human
[2] = system: MDA-MB-468 cells; assay: Cell viability, ATP levels 72 h; assay type: cell-based, human; design: key to Cell viability (ATP levels): ATP levels as % of vehicle (DMSO) control; details: replicates; for Cell viability (ATP levels): MDA-MB-468
Experimental: Supplementary Fig. 15: PU-HZ151 activity in cells is unaffected by Pgp overexpression. a Two Pgp-positive cells lines, Kasumi-1 and HepG2, were tested for epichaperome-positivity. β-Actin, loading control. b ATP levels in cell treated for 72 h with 0 to 1 µM PU-HZ151. Data are presented as means ±s.e.m. of three experimental repeats. Control, vehicle (DMSO) treated cells. c Western blot analysis of aberrant signaling pathway inhibition by […]
(also on this page, place not known: MDA‐MB-468ASPC1Kasumi Hep G2 ATP levels %Control MDA‐MB-468ASPC1Kasumi 1Hep G2 β-Actin HSP90α Native-PAGE SDS PAGE 100- β-Actin 1)

[3] = target: T1, CYP3A4 (Homo sapiens, UniProt P08684); assay: Cytochrome P450 profiling, troleandomycin; assay type: in vitro ADME; details: for % PU-HZ151 remaining: Troleandomycin
T1 construct: tissue Life Technologies HMMCPL; host or cells: human liver microsomes
Experimental: (§1) To identify cytochrome P450 enzymes responsible for PU-HZ151’s metabolism in human liver microsomes the following procedure was followed. Phosphate buffer (100 mM, pH 7.4) was prepared monthly and stored at 4 °C. Frozen stock solutions of human liver microsomes (Life Technologies; Cat# HMMCPL) were used once after thawing and were not refrozen. NADPH stock solution (50 mM) in distilled water was prepared fresh daily. […] The stock solutions of these P450 inhibitors were prepared in DMSO. […] The concentration of the chemical inhibitors used in the assay were furafylline (10 μM), tranylcypromine (2 μM), ketoconazole (1 μM), troleandomycin (20 μM), orphenadrine (50 μM), montelukast (3 μM), sulfaphenazole (10 μM), benzylnirvanol (1 μM), quinidine (1 μM), and 1-aminobenzotriazole (1 mM) for all the P450 enzymes. Timing of the reactions was started following the addition of NADPH/magnesium chloride mix and PU-HZ151. Time-dependent chemical inhibitors (furafylline, troleandomycin, orphenadrine, and 1-aminobenzotriazole) were preincubated with human microsomes in the presence of NADPH and magnesium chloride for 15 min before the addition of PU-HZ151 and timing of reactions was started after addition of PU-HZ151. […] Following brief vortexing and centrifugation, a 200 µL aliquot of the supernatant was transferred to a tube, and 10 µL of haloperidol (1 µg mL^−1) as internal standard was added. Following brief vortexing and centrifugation, 50 µL of supernatant was added to a 96-well plate for subsequent LC-MS/MS analysis. PU-HZ151 was similarly tested as above in the absence of CYP inhibitors for comparative purposes. All samples were assayed in duplicate. […] This was similarly performed for incubations of PU-HZ151 performed in the absence of CYP inhibitor.

[4] = target: T2, CYP2A6 (Homo sapiens, UniProt P11509); assay: Cytochrome P450 profiling, tranylcypromine; assay type: in vitro ADME; details: for % PU-HZ151 remaining: Tranylcypromine
T2 construct: PU-HZ151 (1 µM) was incubated with human liver microsomes (0.5 mg protein mL^−1); tissue Life Technologies HMMCPL; host or cells: human liver microsomes
T2 sequence (P11509 1-494): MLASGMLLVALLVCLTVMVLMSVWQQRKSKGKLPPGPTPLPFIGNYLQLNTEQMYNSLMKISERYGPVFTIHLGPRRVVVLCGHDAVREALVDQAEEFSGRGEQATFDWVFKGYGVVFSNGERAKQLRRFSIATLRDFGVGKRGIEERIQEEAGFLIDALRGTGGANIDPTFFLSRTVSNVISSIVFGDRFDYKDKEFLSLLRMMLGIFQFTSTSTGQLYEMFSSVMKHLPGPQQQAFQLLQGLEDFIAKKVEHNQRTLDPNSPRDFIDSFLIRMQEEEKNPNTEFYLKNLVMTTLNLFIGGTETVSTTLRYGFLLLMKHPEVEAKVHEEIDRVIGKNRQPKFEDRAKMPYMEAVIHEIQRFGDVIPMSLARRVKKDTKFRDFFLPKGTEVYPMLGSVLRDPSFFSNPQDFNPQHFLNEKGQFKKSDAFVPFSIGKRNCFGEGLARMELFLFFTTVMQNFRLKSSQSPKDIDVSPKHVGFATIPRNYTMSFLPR
Experimental: as §1

T1 sequence (P08684 whole entry): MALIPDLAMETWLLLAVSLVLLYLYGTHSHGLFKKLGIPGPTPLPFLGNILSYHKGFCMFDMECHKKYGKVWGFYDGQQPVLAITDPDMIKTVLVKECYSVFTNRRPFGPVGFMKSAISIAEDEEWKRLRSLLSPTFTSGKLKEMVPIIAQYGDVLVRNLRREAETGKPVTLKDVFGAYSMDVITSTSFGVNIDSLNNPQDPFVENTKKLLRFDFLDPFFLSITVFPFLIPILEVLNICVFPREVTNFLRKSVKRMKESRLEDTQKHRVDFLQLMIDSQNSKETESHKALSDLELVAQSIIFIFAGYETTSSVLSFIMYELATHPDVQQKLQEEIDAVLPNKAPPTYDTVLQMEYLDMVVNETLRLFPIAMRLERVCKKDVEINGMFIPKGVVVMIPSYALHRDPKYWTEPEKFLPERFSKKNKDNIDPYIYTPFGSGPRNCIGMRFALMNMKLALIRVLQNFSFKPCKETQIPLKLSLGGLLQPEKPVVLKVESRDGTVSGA

SMILES: CC(C)(C)CNCCn1c(Sc2cc3c(cc2I)OCO3)nc2c(N)ncnc21 [Compound 85]
- Epichaperome modulation (Native PAGE), R1-R3 ([1]; [PU-HZ151] 0.05 uM): 101.613 and 126.223 and 117.544
- Epichaperome modulation (Native PAGE), R1-R3 ([1]; [PU-HZ151] 0.1 uM): 92.742 and 86.889 and 60.276
- viability at 0.00195312 µM ([2]; Homo sapiens, MDA-MB-468, MDA-MB-468, 1.95312 nM): 97.8%
- viability at 0.00390625 µM ([2]; Homo sapiens, MDA-MB-468, MDA-MB-468, 3.90625 nM): 107%
- viability at 0.015625 µM ([2]; Homo sapiens, MDA-MB-468, MDA-MB-468, 15.625 nM): 107%
- viability at 0.03125 µM ([2]; Homo sapiens, MDA-MB-468, MDA-MB-468, 31.25 nM): 34.4%
- viability at 0.125 µM ([2]; Homo sapiens, MDA-MB-468, MDA-MB-468, 125 nM): 7.51%
- viability at 0.5 µM ([2]; Homo sapiens, MDA-MB-468, MDA-MB-468, 500 nM): 13.5%
- Cell viability (ATP levels) ([2]; 1.95312 nM, listed as PU-HZ151, 0.00195312 µM): 110.592 and 103.375
- Cell viability (ATP levels) ([2]; 3.90625 nM, listed as PU-HZ151, 0.00390625 µM): 119.425 and 107.367
- Cell viability (ATP levels) ([2]; 7.8125 nM, listed as PU-HZ151, 0.0078125 µM): 108.225 and 84.5333 and 99.0667
- Cell viability (ATP levels) ([2]; 15.625 nM, listed as PU-HZ151, 0.015625 µM): 116.083 and 108.992
- Cell viability (ATP levels) ([2]; 31.25 nM, listed as PU-HZ151, 0.03125 µM): 42.5333 and 26.2083
- Cell viability (ATP levels) ([2]; 62.5 nM, listed as PU-HZ151, 0.0625 µM): 4.317 and 13.7833 and 10.55
- Cell viability (ATP levels) ([2]; 125 nM, listed as PU-HZ151, 0.125 µM): 8.242 and 5.217
- Cell viability (ATP levels) ([2]; 500 nM, listed as PU-HZ151, 0.5 µM): 14.6417 and 13.2667
- Cell viability (ATP levels) ([2]; 1000 nM, listed as PU-HZ151, 1 µM): 13.625 and 13.2667 and 6.525
- % PU-HZ151 remaining ([3]; 15 min): 79.8%
- % PU-HZ151 remaining ([3]; 30 min): 66.9%
- % PU-HZ151 remaining ([3]; 60 min): 50.9%
- inhibition of PU-HZ151 metabolism ([3]; troleandomycin): 40%
- % PU-HZ151 remaining ([4]; 15 min): 57.2%
- % PU-HZ151 remaining ([4]; 30 min): 36.6%
- % PU-HZ151 remaining ([4]; 60 min): 18.4%
- inhibition of PU-HZ151 metabolism ([4]; tranylcypromine): essentially no effect
